Results on 4 molecules are retold here after patent US8507545B2, “Cytotoxic T cell activator comprising EP4 agonist” (National University Corporation, Hamamatsu University …, priority 2007, dated 2013).

The test system of assay [1] is TRP-2-specific CTLs. Put plainly: Activation of cytotoxic T cells in cervical lymph nodes after tape stripping (TRP-2 tetramer flow cytometry). The class given is in vivo, C57BL/6(B6) mice. The settings on record: relative to total mononucleocytes as 100. On the procedure: (§1) The corneal layers of the auricles of C57BL/6(B6) mice were destroyed by repeating a stripping procedure using an adhesive tape in 10 cycles, and an antigen peptide or EP4 agonist was applied as a test substance. The antigen peptide used was a melanoma-specific antigen peptide (Accord K.K. Peptide Business Department; hereinafter abbreviated TRP-2) in solution in 70% ethanol; 10 μg was applied to one side of each auricle. The EP4 agonist used was 11α,15α,-dihydroxy-9-oxo-16-(3-methoxymethylphenyl)-17,18,19,20-tetranol-3,7-dithiaprost-13E-enoic acid (hereinafter abbreviated Compound A-(1)) in solution in a mixed solvent of acetone:olive oil=10:1; 20 μL of 100 μM solution was applied to one side of each auricle. One week after application of the test substance, the cervical lymph nodes were removed. The frequency of TRP-2-specific CTLs was determined relative to the total number of mononucleocytes in the cervical lymph nodes as 100 by a flowcytometric analysis (FACScaliber; Becton, Dickinson and Company.) with a tetramer (Medical & Biological Laboratories Co., Ltd.). Four experimental groups were established: (1) a group undergoing tape stripping (hereinafter abbreviated TS) alone, (2) a group undergoing TS followed by application of TRP-2, (3) a group undergoing TS followed by application of Compound A-(1), and (4) a group undergoing TS followed by application of TRP-2 and Compound A-(1).
Note that the melanoma-specific antigen peptide TRP-2 was synthesized on the basis of a partial sequence described in the aforementioned Non-patent Document 1 (SEQ ID NO. 1) (Accord K.K. Peptide Business Department).
The same procedures as Example 1(1) were followed except that the EP4 agonists used were 4-[(2-{(2R)-2-[(1E,3S)-4-(4-fluorophenyl)-3-hydroxybut-1-enyl]-5-oxopyrrolidin-1-yl}ethyl)sulfanyl]butanoic acid (hereinafter abbreviated Compound L-(1)) and 4-{[2-((1R,2R,3R)-3-hydroxy-2-{(1E,3S)-3-hydroxy-4-[3-(methoxymethyl)phenyl]but-1-enyl}-5-oxocyclopentyl)ethyl]sulfanyl}butanoic acid (hereinafter abbreviated Compound M-(1)); the action of each compound to activate cytotoxic T cells was evaluated. Four experimental groups were established: (1) a group undergoing TS alone, (2) a group undergoing TS followed by application of TRP-2, (3) a group undergoing TS followed by application of TRP-2 and Compound L-(1), and (4) a group undergoing TS followed by application of TRP-2 and Compound M-(1).

The next assay has as its system HSVgpB-specific CTLs. In words: Activation of cytotoxic T cells in cervical lymph nodes after tape stripping (HSVgpB pentamer flow cytometry). The class given is in vivo, C57BL/6(B6) mice. The following applies: Example 1(3). On the procedure: as §1
The same procedures as Example 1(1) were followed except that the antigen peptide used was the herpes simplex virus-specific antigen HSV glycoprotein B (hereinafter abbreviated HSVgpB), and that a flowcytometric analysis with a pentamer (ProImmune Company) was performed, and the action of each compound to activate cytotoxic T cells was evaluated. Five experimental groups were established: (1) a group undergoing TS alone, (2) a group undergoing TS followed by application of HSVgpB, (3) a group undergoing TS followed by application of HSVgpB and Compound A-(1), (4) a group undergoing TS followed by application of HSVgpB and Compound L-(1), and (5) a group undergoing TS followed by application of HSVgpB and Compound M-(1).
Note that the herpes simplex virus-specific antigen peptide HSVgpB was synthesized on the basis of the partial sequence shown by SEQ ID NO. 2 (Virology, Vol. 195, pp. 62-70, (1993)) (ProImmune Company).

Assay [2] concerns TRP-2-specific CTLs. In words: Activation of cytotoxic T cells in isolated Langerhans cells co-cultured with lymphocytes. The class given is cell-based, C57BL/6(B6) mouse. As for the experimental part: A given area of an auricle epidermal sheet was removed from the corneal layer of one auricle of each C57BL/6(B6) mouse, and trypsinized to yield an epidermal cell suspension. The epidermal cell suspension obtained was subjected to panning using an antibody specific for I-A^b antigen to isolate epidermal Langerhans cells. After each test substance (TRP-2 (concentration; 10 μg/mL) and Compound A-(1) (1 μM)) was added to the Langerhans cells isolated (cell density; 10^5 cells per mL), the cells were cultured with a medium (cRPMI1640 medium; Sigma-Aldrich Japan). Half a day later, the cells were co-cultured with splenocytic lymphocytes isolated from […] for 7 days. Subsequently, by a flowcytometric analysis (FACScaliber; Becton, Dickinson and Company.) using a tetramer (Medical & Biological Laboratories Co., Ltd.), the frequency of TRP-2-specific CTLs was determined relative to the total number of mononucleocytes in the medium as 100. Three experimental groups were established: (1) a group with no treatment, (2) a group with the addition of TRP-2, and (3) a group with the addition of both TRP-2 and Compound A-(1).

The next assay relates to B16 melanoma cells. Put plainly: Melanoma growth suppressing action. It counts as in vivo, B6 mouse. The following applies: TS followed by application of TRP-2, experimental group (2). As for the experimental part: The corneal layer was removed from the right auricle of each B6 mouse by TS in the same manner as Example 1, and test substances (TRP-2 and Compound A-(1)) were applied there; 2 weeks later, the left auricle was treated in the same manner. The test substances applied to both ears were used in the same combination; TRP-2 was applied at 10 μg for one side of each auricle, and Compound A-(1) was applied at 20 μl, of 100 μM solution for one side of each auricle. Four days after the above-described treatment, each mouse received 2×10^5 B16 melanoma cells (RIKEN's Cell Bank) by subcutaneous transplantation, and examined for tumor growth. Experimental groups were established as in Example 1(1) (5 animals in each group).
Tumor diameter (mm), as an index of tumor growth, was measured in each group at various days after inoculation of B16 melanoma cells; the results are shown in FIG. 1.

Setting [3] is: Example 1(2), TS followed by application of TRP-2 and the EP4 agonist, cervical lymph nodes.
The mark [4] stands for this setting: TS followed by application of HSVgpB and the EP4 agonist.

As to `O=C(O)CCCSCCN1C(=O)CC[C@@H]1/C=C/[C@@H](O)Cc1ccc(F)cc1` [Compound L-(1), 4-[(2-{(2R)-2-[(1E,3S)-4-(4-fluorophenyl)-3-hydroxybut-1-enyl]-5-oxopyrrolidin-1-yl}ethyl)sulfanyl]butanoic acid], the “Ratio of TRP-2-specific CTLs” value in the assay on TRP-2-specific CTLs [1] (setting [3]) is listed as 1.92. In addition, in the assay with HSVgpB-specific CTLs (setting [4]), the “Ratio of HSVgpB-specific CTLs” value came out at 0.29.
In the same order, the values of `COCc1cccc(C[C@H](O)/C=C/[C@H]2[C@H](O)CC(=O)[C@@H]2CCSCCCC(=O)O)c1` [Compound M-(1), 4-{[2-((1R,2R,3R)-3-hydroxy-2-{(1E,3S)-3-hydroxy-4-[3-(methoxymethyl)phenyl]but-1-enyl}-5-oxocyclopentyl)ethyl]sulfanyl}butanoic acid] are 1.66 and 0.30.
Take “HSVgpB: herpes simplex virus-specific antigen peptide; Herpes Simplex Virus glycoprotein B 498-505 (SEQ ID NO. 2) (SSIEFARL; Herpes Simplex Virus glycoprotein B 498-505) [reference compound]”: the “Ratio of HSVgpB-specific CTLs” value in the assay with HSVgpB-specific CTLs (TS followed by application of HSVgpB alone) is 0.25.
Take “TRP-2: melanoma-specific antigen peptide; tyrosinase-related protein 2 181-188, partial sequence VYDFFVWL (SEQ ID NO. 1) (Tyrosinase-related protein 2 residues 181-188) [reference compound]”: the “Ratio of TRP-2-specific CTLs” value with TRP-2-specific CTLs [1] (Example 1(1), TS followed by application of the test substance alone, cervical lymph nodes one week after application) is 0.35; in the assay on TRP-2-specific CTLs [1] (Example 1(2), TS followed by application of TRP-2 alone, cervical lymph nodes) it was 1.28; in the assay on TRP-2-specific CTLs [2] (addition of TRP-2 (10 μg/mL) alone, 7 days co-culture, relative to total mononucleocytes in the medium as 100), 3.2. Moreover, the “ratio of TRP-2-specific CTLs in B6 splenocytic lymphocytes” value with TRP-2-specific CTLs [2] (addition of TRP-2, experimental group (2)) is “increased”. In addition, the “tumor growth suppressing action compared with an EP4 agonist alone” value with B16 melanoma cells is given as “equivalent”.
